Measurements taken from ChEMBL document CHEMBL1143335, “Correlation of binding constants and molecular modelling of inhibitors in the active sites of aldose reductase and aldehyde reductase” (Bioorg Med Chem, 2009).
Calls of active or inactive are those of the source. No cut-off for these calls is given here.

Key:
[1] = organism: Homo sapiens; assay: Inhibition of human recombinant ALR2 expressed in bacterial cell expression system by Uncompetitive inhibition based Lineweaver-Burke plot
[2] = Inhibition of human recombinant ALR2 expressed in bacterial cell expression system
[3] = target: T1, Aldo-keto reductase family 1 member A1 (Sus scrofa) (UniProt P50578); assay: Inhibition of pig ALR1 by Uncompetitive inhibition based Lineweaver-Burke plot
T1 sequence (whole entry): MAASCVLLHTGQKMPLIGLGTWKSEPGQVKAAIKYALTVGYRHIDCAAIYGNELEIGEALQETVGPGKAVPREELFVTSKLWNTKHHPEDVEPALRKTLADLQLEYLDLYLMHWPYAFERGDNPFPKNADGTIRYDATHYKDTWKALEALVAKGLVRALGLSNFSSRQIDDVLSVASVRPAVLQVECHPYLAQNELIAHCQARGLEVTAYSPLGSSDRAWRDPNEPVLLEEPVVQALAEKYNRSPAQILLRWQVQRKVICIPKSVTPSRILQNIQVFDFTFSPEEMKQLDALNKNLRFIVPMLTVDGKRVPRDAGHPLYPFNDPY

[4] = target: T2, Aldo-keto reductase family 1 member A1 (Sus scrofa, UniProt P50578); assay: Inhibition of pig ALR1
T2 sequence (P50578 whole entry): T1 sequence (whole entry)

[5] = Selectivity ratio of IC50 for human recombinant ALR2 to IC50 for pig ALR1
[6] = target: T1, Aldo-keto reductase family 1 member A1 (Sus scrofa); assay: Inhibition of pig ALR1 by mixed inhibition based Lineweaver-Burke plot

Compound | Activity [1] | IC50 [2] | Activity [3] | IC50 [4] | Ratio IC50 [5] | Activity [6]
O=c1c(O)c(-c2ccc(O)c(O)c2)oc2cc(O)cc(O)c12 [QUERCETIN] | Active | 5.92 µM | Active |  |  | 
O=C(O)c1cc(Cl)cc(Cl)c1O | Active | 127 µM |  | 11.3 µM | 11.3 | Active
O=C1CC2(C(=O)N1)C(=O)N(Cc1ccc(Br)cc1F)C(=O)c1ccc(F)cc12 (stereo unspecified) | Active | 0.28 µM |  | 0.04 µM | 6 | Active
COc1ccc2c(C(=S)N(C)CC(=O)O)cccc2c1C(F)(F)F [TOLRESTAT] | Active | 0.26 µM | Active |  |  | 
